For experiment [1], the system named is presynaptic α2-adrenoreceptors. Kind of experiment: Presynaptic α2-adrenoreceptor antagonism in the pithed rat: reversal of clonidine block on vas deferens, intravenous. Format: in vivo. Particulars: for i.v. dose of antagonist causing 50% reversal of clonidine block on vas deferens: cumulative i.v. dosing, clonidine 100 μg/kg i.v., mean of minimum 4 rats. The method, then: This test model extends the evaluation of presynaptic α2 -adrenoreceptor antagonism versus clonidine on the rat vas deferens to the in vivo situation. Blood pressure and stimulation induced contractions of the vas deferens were monitored in pithed rats using the method of Brown, J., Doxey, J. C., Handley, S. and Virdee, N., Recent Advances in the Pharmacology of Adrenoceptors, Elsevier North Holland, 1978. Clonidine (100 μg/kg. i.v.) causes a prolonged pressor response and a prolonged inhibition of vas deferens contractions. The test drugs were injected intravenously in a cumulative dosing schedule and their abilities to reverse the inhibition of hypogastric nerve stimulation reflected their presynaptic antagonism.
The results are the mean of a minimum of 4 rats.

Experiment [2] has as its target T1, postsynaptic α1-adrenoreceptor (Rattus norvegicus, UniProt P43140).
T1 construct: the rat anococcygeus muscle is used to establish postsynaptic α1 -adrenoreceptor activity; from tissue; host or cells: rat anococcygeus muscle
T1 sequence (P43140 1-466): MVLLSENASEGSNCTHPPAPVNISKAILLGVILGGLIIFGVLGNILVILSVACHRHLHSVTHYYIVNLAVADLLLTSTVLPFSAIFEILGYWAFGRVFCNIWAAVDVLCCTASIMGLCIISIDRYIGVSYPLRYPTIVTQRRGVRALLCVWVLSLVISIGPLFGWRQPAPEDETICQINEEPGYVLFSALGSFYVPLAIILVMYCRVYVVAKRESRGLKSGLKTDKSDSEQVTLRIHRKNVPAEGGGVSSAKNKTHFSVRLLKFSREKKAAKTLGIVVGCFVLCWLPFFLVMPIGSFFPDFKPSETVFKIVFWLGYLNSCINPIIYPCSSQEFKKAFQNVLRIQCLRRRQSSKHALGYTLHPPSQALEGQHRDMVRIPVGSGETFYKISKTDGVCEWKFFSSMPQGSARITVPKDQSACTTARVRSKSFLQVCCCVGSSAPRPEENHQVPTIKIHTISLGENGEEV
Briefly: Postsynaptic α1-adrenoreceptor antagonism versus noradrenaline contractions of the rat anococcygeus muscle (isolated tissue). An excerpt: (§1) This in vitro model is particularly useful as an initial screen for studying presynaptic activity in isolation since the physiological nature of the vas deferens tissue is such that the postsynaptic receptors located therein are particularly inaccessible to exogenous agents. In consequence an alternative tissue, the rat anococcygeus muscle is used to establish postsynaptic α1 -adrenoreceptor activity. Antagonism of noradrenaline contractions is used to determine pA2 values at postsynaptic α1 -adrenoreceptors. The ratio of presynaptic α2 -adrenoreceptor antagonism (versus clonidine on the rat vas deferens) to postsynaptic α1 -adrenoreceptor antagonism (versus noradrenaline contractions on the rat anococcygeus muscle) is used to assess adrenoreceptor selectivity.
(§2) The results are the mean of a minimum of 5 experiments.

The target of experiment [3] is T2, α2-binding sites (Rattus norvegicus, UniProt P22909).
T2 construct: A crude synaptosomal P2 fraction was prepared; from tissue; host or cells: cerebral cortex including hippocampus, male Sprague-Dawley rats, crude synaptosomal P2 fraction
T2 sequence (P22909 1-465): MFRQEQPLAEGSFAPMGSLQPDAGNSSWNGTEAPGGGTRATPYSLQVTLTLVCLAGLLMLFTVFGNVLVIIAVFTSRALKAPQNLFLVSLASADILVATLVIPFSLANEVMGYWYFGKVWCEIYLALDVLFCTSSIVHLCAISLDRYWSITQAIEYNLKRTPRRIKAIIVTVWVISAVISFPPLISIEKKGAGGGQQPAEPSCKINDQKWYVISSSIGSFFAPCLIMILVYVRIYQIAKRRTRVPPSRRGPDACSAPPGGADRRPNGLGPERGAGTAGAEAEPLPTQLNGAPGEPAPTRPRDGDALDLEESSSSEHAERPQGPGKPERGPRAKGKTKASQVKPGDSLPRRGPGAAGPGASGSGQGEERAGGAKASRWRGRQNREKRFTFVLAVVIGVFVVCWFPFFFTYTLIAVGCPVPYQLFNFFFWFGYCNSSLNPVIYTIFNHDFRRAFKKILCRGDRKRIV
Briefly: Radioligand competition binding at α2-binding sites labelled by [^3 H]-RX781094 in rat cerebral cortex. Particulars: for Ki: α2 Ki vs [^3 H]-RX 781094, rat cerebral cortex, 1 nM radioligand, 15 min, 25° C.; for activity of the enantiomers (in words): from Table 4 / testing results. An excerpt:
The pharmacological activity of the racemic compound (RS) of Example 1 (in formula I R^1 =methyl) has been compared with the activities of the R and S enantiomers.
Male Sprague-Dawley rats, 250-300 g, were killed by decapitation, the brains quickly removed and the cerebral cortex dissected free from striatal tissue but including the hippocampus. Tissue was homogenized in ice-cold buffered sucrose (20 vols w/v 0.3 M sucrose in Tris/HCl buffer, 0.05 M, pH 7.4) using a Potter-type glass-teflon homogenizer. A crude synaptosomal P2 fraction was prepared and the washed P2 -pellet was resuspended in a physiological salt solution to give a final protein concentration of about 1 mg/ml. The physiological salt solution had the following composition ([…]): 118 NaCl, 4.8 KCl, 1.3 CaCl2, 1.2 […], 1.2 MgSO4, 25 NaHCO3 and was equilibrated with 95% O2 and 5% CO2.
Samples were incubated for 15 min at 25° C. and then rapidly filtered under vacuum through Whatman GFB filters and washed. Filters were transferred to scintillation vials and NE 260 miscellar scintillation fluid (3.5 ml) was added prior to scintillation counting (at 40% efficiency). Competition binding curves including up to eight concentrations of test antagonist were constructed and IC50 values determined. Hill plots made from each set of data were linear with Hill coefficients (nh) […] to 1.0 and inhibitor constants (Ki values) were derived from IC50 values.
A general note: In a radioligand displacement assay an active substance lowers the binding of a labelled ligand.

In experiment [4] the target is T3, presynaptic α2-adrenoreceptor (Rattus norvegicus, UniProt P22909).
T3 construct: on the rat vas deferens stimulated at a frequency of 0.1 Hz; from tissue; host or cells: rat vas deferens
T3 sequence (P22909 1-465): T2 sequence (P22909 1-465)
Briefly: Presynaptic α2-adrenoreceptor antagonism versus clonidine on the stimulated rat vas deferens (isolated tissue). Particulars: for Pre/postsynaptic ratio: presynaptic α2 (vs clonidine, vas deferens) to postsynaptic α1 (vs noradrenaline, anococcygeus) antagonism.
Excerpt: as §1, §2

The target in experiment [5] is T2, α2-binding sites. Kind of experiment: Saturation binding of [^3 H]-RX 781094 in rat cerebral cortex, Scatchard analysis. Particulars: 0.1-35 nM radioligand, n=4. The method, then: Male Sprague-Dawley rats, 250-300 g, were killed by decapitation, the brains quickly removed and the cerebral cortex dissected free from striatal tissue but including the hippocampus. Tissue was homogenized in ice-cold buffered sucrose (20 vols w/v 0.3 M sucrose in Tris/HCl buffer, 0.05 M, pH 7.4) using a Potter-type glass-teflon homogenizer. A crude synaptosomal P2 fraction was prepared and the washed P2 -pellet was resuspended in a physiological salt solution to give a final protein concentration of about 1 mg/ml.

In general, Ki refers to the dissociation constant of the complex between target and ligand, obtained from inhibition or displacement. Low values mean tighter binding, high ones weaker binding.

Entries after “also recorded” stand apart in the source; their conditions may differ. Structures can show the parent of a compound that is named as a salt. Where two headings read alike, the source gives them in different places. Some results are limits rather than exact numbers.

Regarding `CN1CCN2c3ccccc3Cc3ccccc3C2C1` (stereo not shown) [Mianserin HCl], the “i.v. dose of antagonist causing 50% reversal of clonidine block on vas deferens” value in experiment [1] (pithed rat) is listed as over 4.4 mg/kg.
Take `COC1(C2=NCCN2)COc2ccccc2O1` (racemic) [Example 1, 2-[2-(2-Methoxy-1,4-benzodioxanyl)]-2-imidazoline]: in experiment [1] (compounds of Table 3), the “presynaptic α2 antagonist potency in the pithed rat (in words)” value is given as “clearly the most potent presynaptic α2 -adrenoreceptor antagonist”. Moreover, in experiment [1] (pithed rat), the “i.v. dose of antagonist causing 50% reversal of clonidine block on vas deferens” value is 0.002 mg/kg. Also, the Kb was 63.1 nM in experiment [2] (rat anococcygeus muscle, vs noradrenaline, mean of minimum 5 experiments, read-out: Postsynaptic antagonism pA2 vs Noradrenaline (anococcygeus) (converted)) and 0.0794 nM in experiment [4] (rat vas deferens, 0.1 Hz stimulation, vs clonidine, mean of minimum 5 experiments, read-out: Presynaptic antagonism pA2 vs Clonidine (vas deferens) (converted)). Besides, the inhibition constant Ki in experiment [3] is 0.8 ± 0.05 nM. Further, the “presynaptic α2 antagonist activity relative to the unsubstituted compound (A)” value in experiment [4] (Table 2, relative to compound A) is reported as about 10 times. Besides, the “presynaptic α2 antagonist activity relative to the 2-methyl compound (B)” value in experiment [4] (Table 2, relative to compound B) turned out to be 10 times. Moreover, the “presynaptic α2-adrenoreceptor antagonist potency and selectivity (in words)” value in experiment [4] (compounds of Table 2) was “most potent presynaptic α2 -adrenoreceptor antagonist; also recorded: extremely selective for presynaptic sites”. Further, the Pre/postsynaptic ratio in experiment [4] came to 776.
`COC1(C2=NCCN2)COc2ccccc2O1` (single isomer, unassigned; (-)) [R, (-)-2-[2-(2-methoxy-1,4-benzodioxanyl)]-2-imidazoline]: the “activity of the enantiomers (in words)” value in experiment [3] (listed as R isomer) was “almost inactive”. The compound also gave a Ki in experiment [3] of 256 ± 59 nM.
With `COC1(C2=NCCN2)COc2ccccc2O1` (single isomer, unassigned) [S, 2-[2-(2-methoxy-1,4-benzodioxanyl)]-2-imidazoline], the “potency of the S isomer relative to the racemate (in words)” value in experiment [3] (from Table 4) is listed as “twice as potent as the racemate”. Besides, the “activity of the enantiomers (in words)” value is on record as “all the activity resided in the (+) enantiomer” in experiment [3] (listed as (+) enantiomer) and “the active form” in experiment [3] (listed as S isomer). In experiment [3], this compound returned an inhibition constant Ki of 0.36 ± 0.07 nM.
In turn, `c1ccc2c(c1)OCC(C1=NCCN1)O2` (stereo not shown) [[^3 H]-RX 781094, 2-[2-(1,4-benzodioxanyl)]-2-imidazoline] showed a Bmax in experiment [5] of 147±36 f moles/mg protein.
In the case of `CN1CCN2c3ccccc3Cc3ccccc3C2C1` (stereo not shown) [Mianserin], the “maximum reversal of the inhibitory effects of clonidine on hypogastric nerve stimulation” value in experiment [1] (pithed rat, cumulative intravenous dose of 4.4 mg/kg) came to 36%.
Turning to `COC(=O)[C@@H]1[C@H]2C[C@H]3c4[nH]c5ccccc5c4CCN3C[C@@H]2CC[C@@H]1O` [Yohimbine HCl], the “i.v. dose of antagonist causing 50% reversal of clonidine block on vas deferens” value in experiment [1] (pithed rat) came to 0.86 mg/kg.
Take `CC1(C2=NCCN2)COc2ccccc2O1` (stereo not shown) [B, 2-[2-(2-methyl-1,4-benzodioxanyl)]-2-imidazoline, reference compound]: in experiment [4], the Pre/postsynaptic ratio worked out at 871.
In the case of `Cc1ccc(N(CC2=NCCN2)c2cccc(O)c2)cc1` [Phentolamine mesylate], the “i.v. dose of antagonist causing 50% reversal of clonidine block on vas deferens” value in experiment [1] (pithed rat) is 0.12 mg/kg.
As to `c1ccc2c(c1)OCC(C1=NCCN1)O2` (stereo not shown) [A, 2-[2-(1,4-benzodioxanyl)]-2-imidazoline, reference compound], the Kb in experiment [2] was 631 nM.

(Values after patent US4446148A, “Benzodioxanyl imidazoline compounds, compositions and use” (priority 1982, dated 1984).)
